The values that follow come from PubChem BioAssay AID588737 (Vanderbilt Specialized Chemistry Center, 2011).

SMILES strings stand for the structures.

The test has as its target Metabotropic glutamate receptor 5 (Homo sapiens) (UniProt P41594). The experiment in a line: PubChem AID 588737. To be noted: HEK293A hmGluR5 calcium fluorescence, glutamate CRC fold shift, at 10 µM, stronger effect = higher value; for Emax: glutamate max response with compound.

Chain of Metabotropic glutamate receptor 5 (Homo sapiens) (P41594 whole entry, looked up): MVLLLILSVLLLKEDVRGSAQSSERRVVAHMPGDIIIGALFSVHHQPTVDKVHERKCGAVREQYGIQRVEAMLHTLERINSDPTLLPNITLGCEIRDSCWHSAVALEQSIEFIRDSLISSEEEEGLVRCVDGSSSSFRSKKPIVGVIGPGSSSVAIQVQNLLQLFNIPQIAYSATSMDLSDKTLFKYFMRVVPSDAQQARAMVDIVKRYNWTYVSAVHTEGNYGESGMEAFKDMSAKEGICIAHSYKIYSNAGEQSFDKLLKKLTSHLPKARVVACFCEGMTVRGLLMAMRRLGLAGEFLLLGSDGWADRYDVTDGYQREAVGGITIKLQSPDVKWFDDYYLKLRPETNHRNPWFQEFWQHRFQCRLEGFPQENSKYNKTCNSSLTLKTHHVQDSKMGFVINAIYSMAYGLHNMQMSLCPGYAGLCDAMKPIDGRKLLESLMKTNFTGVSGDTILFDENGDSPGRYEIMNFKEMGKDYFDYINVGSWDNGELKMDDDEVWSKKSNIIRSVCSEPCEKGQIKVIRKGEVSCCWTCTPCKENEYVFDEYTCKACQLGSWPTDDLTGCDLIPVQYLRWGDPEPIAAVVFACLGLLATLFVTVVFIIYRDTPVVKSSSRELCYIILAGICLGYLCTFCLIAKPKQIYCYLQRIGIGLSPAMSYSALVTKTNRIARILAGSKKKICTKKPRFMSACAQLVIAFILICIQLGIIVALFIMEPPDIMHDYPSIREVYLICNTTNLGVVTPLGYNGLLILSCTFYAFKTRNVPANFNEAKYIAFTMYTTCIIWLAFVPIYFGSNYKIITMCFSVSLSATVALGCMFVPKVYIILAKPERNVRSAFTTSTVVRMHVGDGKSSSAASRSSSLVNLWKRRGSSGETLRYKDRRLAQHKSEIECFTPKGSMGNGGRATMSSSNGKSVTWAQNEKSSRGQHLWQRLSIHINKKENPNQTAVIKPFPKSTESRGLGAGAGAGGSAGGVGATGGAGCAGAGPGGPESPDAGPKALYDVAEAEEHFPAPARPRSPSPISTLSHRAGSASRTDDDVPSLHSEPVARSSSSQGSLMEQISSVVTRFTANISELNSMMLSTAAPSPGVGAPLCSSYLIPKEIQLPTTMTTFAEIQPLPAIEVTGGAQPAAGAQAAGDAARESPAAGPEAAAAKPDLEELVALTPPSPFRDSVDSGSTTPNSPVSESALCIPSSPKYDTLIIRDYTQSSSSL

In the case of `C[C@@H](NC(=O)c1ccc(C#Cc2cccc(F)c2)cn1)C(C)(C)O`, the fold shift is 9.79 and the Emax turned out to be 95%.

`CC1(NC(=O)c2ccc(C#Cc3cccc(F)c3)cn2)COC1`: the fold shift was 2.19 and the Emax stood at 88%.
